The text below walks through data of patent US9789114B2, “Compounds as HIF-1α inhibitors and manufacturing process thereof” (DONGGUK UNIVERSITY INDUSTRY-ACADEMIC COOPERATION FOUNDATION, priority 2011, dated 2017).

The test system of series [1] is HIF-1α-mediated HRE transcriptional activity. The experiment in a line: Assay for inhibition of HIF-1α-mediated transcriptional activity (HRE reporter assay). The series is classed as cell-based, human. Conditions: Homo sapiens, HCT-116, HCT116 cells, 12 hours under hypoxia (1% O2), read-out: Inhibitory activity against HIF-1α (10 μM). As to the method: <Experiment 1> Assay for Inhibition of HIF-1α-Mediated Transcriptional Activity (HRE Reporter Assay)
The compounds can be developed as anti-cancer drugs, because the compounds inhibiting HIF-1α-mediated HRE transcriptional activity induced by hypoxia can suppress the growth and metastasis of cancer.
Inhibitory effects of the compounds according to the present invention, from Formula I-1 to I-42, on HIF-1α-mediated transcriptional activity were evaluated using this assay. pGL3-HRE-luciferase vector was constructed as follows. Six copies of HRE (Hypoxia Responsive Element, 5′-ACGTG-3′) from human VEGF genes were inserted into the multi-cloning site of a pGL3-basic vector (Promega). A luciferase gene was used as a reporter gene.
In detail, HCT116(ATCC #CCL-247) human colon cancer cells were seeded in 48-well cell culture plates. The cells were co-transfected with 25 ng of pGL3-HRE-luciferase and 2.5 ng of Renila control vectors using Polyfect reagent next day. After 24 hours of incubation, the cells were incubated for an additional 4 hours with replaced cell culture media. The cells were treated with various concentrations (0, 1, 3, 5, 10, and 20 μM) of the above compounds according to the present invention and incubated for 12 hours under hypoxia (1% O2, 94% N2, and 5% CO2). The luciferase assay was performed using a dual-luciferase reporter assay system (Promega). After cell lysate preparation with RIPA buffer, induced luciferase activity under hypoxic conditions was determined to examine inhibitory effects of the compounds according to the present invention, from Formula I-1 to I-42, on HIF-1α-mediated transcriptional activity.
On the technique in general: In a reporter assay the amount or activity of a reporter protein is the signal.

Series [2] in a line: Body weight change and side effects during 14 days of oral treatment in nude mice. In kind it is in vivo, BALB/c nu/nu mice. On the procedure: (§1) In vivo anti-cancer activity of the compounds according to the present invention, I-3, I-6, I-8, I-16, I-19, I-22, I-23, and I-24, was measured in mice to evaluate in vivo efficacy by oral administration. Specifically, the nude mice were divided into test groups and control groups, each consisting of 4 mice. In vivo efficacy was evaluated by measuring body weight, tumor volume, and tumor weight.
(§2) Female nude mice 6 weeks old (BALB/c nu/nu, Charles River) were bred in germ-free breeding rooms maintained at constant temperature and humidity. After the nude mice were anesthetized, HCT116 colon cancer cells were implanted at a count of […] cells/mouse into the rectum in BALB/c nu/nu mice and then the incisions were closed with surgical clips. The size of tumor was measured by a caliper. When the size of transplanted tumor reached to 50˜60 mm^3, the above compounds according to the present invention were administered. In more detail, after the above compounds in test groups were dissolved at concentration of 20 mg/kg in a solvent containing 80% of physiological saline, 10% of DMAC (dimethylacetamide), and 10% Tween 80 (hereinafter referred to as ‘Solvent A’), […] of dissolved compounds were orally administered once a day. Mice in control groups were treated with […] of Solvent A alone once daily.
(§3) Tumor volume and body weight were measured to identify in vivo anti-cancer activity of the compounds according to the present invention by repetitive oral administration. Tumor volume and tumor growth inhibition (TGI) in Table 2 were calculated according to the below Mathematic FIG. 1 and FIG. 2, respectively. Tumor growth inhibition was converted to a percentage in Table 2.
Moreover, severe side effects and statistically significant changes of body weight in all mice treated compounds were not shown for 14 days, comparing to control groups treated with vehicle. (Table 3)

The next series deals with T1, HIF-1α (Homo sapiens, UniProt Q16665).
T1 construct: endogenous in cells; host or cells: HCT116 human colon cancer cells (ATCC #CCL-247)
T1 sequence (Q16665 whole entry): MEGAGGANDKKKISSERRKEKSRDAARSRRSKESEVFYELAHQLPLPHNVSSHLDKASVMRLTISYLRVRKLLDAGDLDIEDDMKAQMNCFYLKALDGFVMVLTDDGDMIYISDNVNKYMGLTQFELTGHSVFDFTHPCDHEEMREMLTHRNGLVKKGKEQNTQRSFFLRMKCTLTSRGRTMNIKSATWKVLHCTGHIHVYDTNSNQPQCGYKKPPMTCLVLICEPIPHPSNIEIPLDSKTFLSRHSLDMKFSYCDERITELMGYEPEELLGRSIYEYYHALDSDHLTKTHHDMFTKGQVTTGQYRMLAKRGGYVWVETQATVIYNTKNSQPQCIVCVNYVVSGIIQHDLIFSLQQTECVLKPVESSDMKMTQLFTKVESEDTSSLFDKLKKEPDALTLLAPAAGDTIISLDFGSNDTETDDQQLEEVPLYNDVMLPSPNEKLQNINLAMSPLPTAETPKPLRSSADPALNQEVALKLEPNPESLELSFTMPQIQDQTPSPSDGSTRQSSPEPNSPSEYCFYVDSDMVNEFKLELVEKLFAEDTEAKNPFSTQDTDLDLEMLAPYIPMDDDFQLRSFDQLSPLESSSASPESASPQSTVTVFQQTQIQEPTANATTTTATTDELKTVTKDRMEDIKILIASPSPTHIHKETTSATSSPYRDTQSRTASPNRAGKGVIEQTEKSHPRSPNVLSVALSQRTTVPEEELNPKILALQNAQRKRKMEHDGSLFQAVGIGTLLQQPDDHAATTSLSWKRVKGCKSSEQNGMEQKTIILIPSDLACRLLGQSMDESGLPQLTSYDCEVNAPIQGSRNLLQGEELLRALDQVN
The experiment in a line: Inhibition of hypoxia-induced HIF-1α accumulation, western blot in HCT116 cells. Particulars: HCT116, hypoxia 1% O2, 0-30 μM, 12 hours, FIG. 1. The series is classed as cell-based. As to the method: <Experiment 2> In Vitro Studies for Inhibition of Hypoxia-Induced HIF-1α Accumulation
Inhibition of HIF-1α accumulation by the compounds according to the present invention was determined in HCT116 human colon cancer cells. In particular, western blot analysis was used to identify the compounds, I-3, I-6, I-8, I-16, I-19, I-22˜I-24, and I-27˜I-36, which inhibited HIF-1α accumulation under hypoxia.
(§4) First, HCT116 human colon cancer cells (ATCC #CCL-247) were plated at the concentration of 2×10^5 cells/ml. After 24 hours, the cells were incubated under hypoxia (1% O2, 94% N2, and 5% CO2, expressed as 1% O2 in FIG. 1) for 4 hours in order to induce HIF-la accumulation. Cells were treated with the compounds at various concentrations (0, 3, 10, 20, and 30 μM) for 12 hours under hypoxia. The cells were then harvested, and lysed in RIPA buffer to obtain nuclear extracts. Cells grown at 20% O2 (normoxia) were used as control groups to compare HIF-1α-mediated gene expression under each condition. 30 μg of the nuclear extracts per sample was separated by SDS-PAGE (sodium dodecyl sulfate-polyacrylamide gel electrophoresis), and was then transferred to PVDF (polyvinylidene fluoride membrane) membranes. After membranes were probed with HIF-1α antibodies (R&D System), HIF-1α proteins were detected with HRP-conjugated secondary antibodies (Amersham-Pharmacia). GAPDH (Glyceraldehyde 3-phosphate dehydrogenase) was used as an internal control for loading in western blot analysis.

The subject of the next series is GAPDH. Put plainly: GAPDH expression level (internal control) in western blot, HCT116 cells. Particulars: HCT116, hypoxia 1% O2, 0-30 μM, 12 hours, FIG. 1. The series is classed as cell-based, human. On the procedure: as §4
In general terms: Immunoblotting shows a protein as a band on a membrane.

The test system of series [3] is HCT116 colon cancer cells. The experiment in a line: In vivo anti-cancer activity by oral administration, HCT116 tumor in nude mice. The arrangement: species or system BALB/c nu/nu mice. Conditions: for inhibition in vivo at 20 mg/kg: Mus musculus. On the procedure: <Example 4> In Vivo Anti-Cancer Activity of Compounds by Oral Administration
as §1, §2, §3

Where [4] appears, read: day 0, 20 mg/kg oral once a day.
Setting [5] is: day 3, 20 mg/kg oral once a day.
Where [6] appears, read: day 5, 20 mg/kg oral once a day.
[7] abbreviates: day 7, 20 mg/kg oral once a day.
Setting [8] is: day 10, 20 mg/kg oral once a day.
Setting [9] is: day 12, 20 mg/kg oral once a day.
Where [10] appears, read: day 14, 20 mg/kg oral once a day.
The mark [11] stands for this setting: HCT-116, 72 h, day 3, 20 mg/kg oral once a day, read-out: TGI (tumor growth inhibition), tumor volume.
Where [12] appears, read: HCT-116, 120 h, day 5, 20 mg/kg oral once a day, read-out: TGI (tumor growth inhibition), tumor volume.
Setting [13] is: HCT-116, 168 h, day 7, 20 mg/kg oral once a day, read-out: TGI (tumor growth inhibition), tumor volume.
Where [14] appears, read: HCT-116, 240 h, day 10, 20 mg/kg oral once a day, read-out: TGI (tumor growth inhibition), tumor volume.
The mark [15] stands for this setting: HCT-116, 288 h, day 12, 20 mg/kg oral once a day, read-out: TGI (tumor growth inhibition), tumor volume.
Setting [16] is: HCT-116, 336 h, day 14, 20 mg/kg oral once a day, read-out: TGI (tumor growth inhibition), tumor volume.
[17] abbreviates: HCT-116, 336 h, day 14, 20 mg/kg oral once a day, read-out: TGI (tumor growth inhibition), tumor weight.

Like-named read-outs stand apart in the source and are kept apart here.

Regarding `CN1CCN(C(=O)CCOc2ccc(C34CC5CC(CC(C5)C3)C4)cc2)CC1` [Compound I-8, 3-(4-(Adamantan-1-yl)phenoxy)-1-(4-methylpiperazin-1-yl)propan-1-one], in series [1], the inhibition at 10 µM was 51 to 75%. The Body weight change was 100.0 ± 0.0% in series [2] (setting [4]); 102.2 ± 2.8% in series [2] (setting [5]); 103.4 ± 2.8% in series [2] (setting [6]); 102.6 ± 2.2% in series [2] (setting [7]); 102.9 ± 1.5% in series [2] (setting [8]); 101.9 ± 1.0% in series [2] (setting [9]). In series [2] (setting [10]), this compound returned a Body weight change of 101.7 ± 2.6%. In addition, the HIF-1α degradation entry at HIF-1α is given as “promoted HIF-1α degradation”. For the same compound, at HIF-1α, the “inhibitory effects on HIF-1α accumulation” value was “significant inhibitory effects on HIF-1α accumulation”. Also, the GAPDH expression levels result in the series on GAPDH is “did not affect GAPDH expression levels”. In addition, the inhibition in vivo at 20 mg/kg was 27.6% in series [3] (setting [11]); 29% in series [3] (setting [12]); 30% in series [3] (setting [13]); 29.3% in series [3] (setting [14]); 28.7% in series [3] (setting [15]); 29.3% in series [3] (setting [16]). Also, the inhibition in vivo at 20 mg/kg in series [3] (setting [17]) is 31%. For the same compound, the Tumor volume came to 24.6 ± 5.1 mm^3 in series [3] (setting [5]); 65.5 ± 9.0 mm^3 in series [3] (setting [6]); 122.2 ± 7.9 mm^3 in series [3] (setting [7]); 184.3 ± 10.0 mm^3 in series [3] (setting [8]); 319.7 ± 22.0 mm^3 in series [3] (setting [9]); 471.1 ± 29.0 mm^3 in series [3] (setting [10]). In series [3] (setting [10]), the Tumor weight is on record as 1634.6 ± 357.2 mg.

With `CN(C)CCNC(=O)C(C)(C)Oc1ccc(C23CC4CC(CC(C4)C2)C3)cc1` [Compound I-24, 2-(4-(Adamantan-1-yl)phenoxy)-N-(2-(dimethylamino)ethyl)-2-methylpropanamide], the inhibition at 10 µM in series [1] lay in the range of 76 to 100%. Further, the Body weight change in series [2] (setting [4]) was 100.0 ± 0.0%; in series [2] (setting [5]) it was 103.5 ± 3.0%; in series [2] (setting [6]), 104.0 ± 3.6%; in series [2] (setting [7]), 103.6 ± 3.6%; in series [2] (setting [8]), 105.0 ± 4.0%; in series [2] (setting [9]) it was 104.9 ± 4.1%. In addition, in series [2] (setting [10]), the Body weight change came to 106.5 ± 4.5%. Also, the inhibition in vivo at 20 mg/kg in series [3] (setting [11]) was found to be 19.5%; in series [3] (setting [12]) it was 18.4%; in series [3] (setting [13]), 15.4%; in series [3] (setting [14]), 15.8%; in series [3] (setting [15]), 14.3%; in series [3] (setting [16]) it was 14.4%. Moreover, the inhibition in vivo at 20 mg/kg in series [3] (setting [17]) stood at 13.9%. Besides, the Tumor volume in series [3] (setting [5]) is 38.1 ± 6.4 mm^3; in series [3] (setting [6]), 93.8 ± 21.0 mm^3; in series [3] (setting [7]), 176.8 ± 27.6 mm^3; in series [3] (setting [8]), 341.7 ± 58.8 mm^3; in series [3] (setting [9]), 569.1 ± 72.4 mm^3; in series [3] (setting [10]), 990.1 ± 140.3 mm^3. The Tumor weight in series [3] (setting [10]) was 3685.5 ± 357.5 mg.

`Cc1cc(C23CC4CC(CC(C4)C2)C3)ccc1OCC(=O)N1CC[N+](C)(C)CC1.[I-]` [Compound I-16, 4-(2-(4-(Adamantan-1-yl)-2-methylphenoxy)acetyl)-1,1-dimethylpiperazin-1-ium iodide]: the inhibition at 10 µM in series [1] lay within 51 to 75%. Further, the Body weight change in series [2] (setting [4]) was found to be 100.0 ± 0.0%; in series [2] (setting [5]) it was 104.1 ± 1.6%; in series [2] (setting [6]) it was 104.2 ± 2.8%; in series [2] (setting [7]) it was 104.3 ± 1.9%; in series [2] (setting [8]) it was 105.8 ± 4.2%; in series [2] (setting [9]), 103.2 ± 3.6%. In series [2] (setting [10]), this compound returned a Body weight change of 102.3 ± 3.7%. Besides, the HIF-1α degradation entry on HIF-1α is given as “promoted HIF-1α degradation”. At HIF-1α, the “inhibitory effects on HIF-1α accumulation” value was “significant inhibitory effects on HIF-1α accumulation”. For the same compound, the GAPDH expression levels result in the series on GAPDH is listed as “did not affect GAPDH expression levels”. Also, the inhibition in vivo at 20 mg/kg in series [3] (setting [11]) was determined as 28.6%; in series [3] (setting [12]), 27.8%; in series [3] (setting [13]) it was 27.9%; in series [3] (setting [14]), 28.8%; in series [3] (setting [15]), 28.6%; in series [3] (setting [16]), 29.2%. For the same compound, the inhibition in vivo at 20 mg/kg in series [3] (setting [17]) is 30.2%. Also, the Tumor volume is 24.2 ± 6.1 mm^3 in series [3] (setting [5]); 66.7 ± 14.2 mm^3 in series [3] (setting [6]); 125.8 ± 13.6 mm^3 in series [3] (setting [7]); 185.7 ± 20.2 mm^3 in series [3] (setting [8]); 320.4 ± 33.9 mm^3 in series [3] (setting [9]); 471.8 ± 26.0 mm^3 in series [3] (setting [10]). This compound returned a Tumor weight in series [3] (setting [10]) of 1655.7 ± 288.4 mg.
